The source of these data is patent US10202356B2, “JAK2 and ALK2 inhibitors and methods for their use” (Tolero Pharmaceuticals, Inc., priority 2013, dated 2019).

A short description of data set [1]: Pharmacokinetic profile, IV and PO administration. The settings on record: PO, free base or salt form as labelled. Further details: AUC 0-inf: concentration or dose not given beside the values. Type of data set: in vivo, female rats.
In a further data set the target is T1, ALK2 (Homo sapiens, UniProt Q04771).
T1 construct: purchased Life Technologies (Drug Discovery and Development Services, Madison, Wis.)
T1 sequence (Q04771 21-509): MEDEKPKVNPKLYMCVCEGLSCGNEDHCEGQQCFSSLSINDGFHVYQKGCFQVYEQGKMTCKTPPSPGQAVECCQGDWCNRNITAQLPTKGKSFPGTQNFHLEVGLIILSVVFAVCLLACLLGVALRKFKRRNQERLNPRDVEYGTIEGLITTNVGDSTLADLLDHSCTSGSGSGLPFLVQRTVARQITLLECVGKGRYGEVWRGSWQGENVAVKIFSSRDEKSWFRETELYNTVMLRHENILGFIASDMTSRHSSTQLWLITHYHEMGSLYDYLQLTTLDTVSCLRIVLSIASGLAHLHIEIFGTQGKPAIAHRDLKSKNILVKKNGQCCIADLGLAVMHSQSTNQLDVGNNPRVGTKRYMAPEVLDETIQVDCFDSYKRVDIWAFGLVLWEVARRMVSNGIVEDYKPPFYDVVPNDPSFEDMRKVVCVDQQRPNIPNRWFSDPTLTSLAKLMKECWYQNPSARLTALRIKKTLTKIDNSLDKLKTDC
Description: ALK2 inhibition, LanthaScreen binding assay. The protocol: (§1) Biochemical assays to measure the inhibitory effects of the compounds were performed by the Drug Discovery and Development Services at Life Technologies (Madison, Wis.). JAK2 kinase assays were performed using Z′-LYTE® technology, while ALK2 inhibition was tested using a LanthaScreen® binding assay.
A general note: TR-FRET usually uses a lanthanide donor and a delayed reading to cut background.

The next data set deals with T2, JAK2 kinase (Homo sapiens, UniProt O60674).
T2 construct: purchased Life Technologies (Drug Discovery and Development Services, Madison, Wis.)
Put plainly: JAK2 kinase assay, Z'-LYTE technology. The class given is biochemical. The procedure:
as §1

T2 sequence (O60674 whole entry): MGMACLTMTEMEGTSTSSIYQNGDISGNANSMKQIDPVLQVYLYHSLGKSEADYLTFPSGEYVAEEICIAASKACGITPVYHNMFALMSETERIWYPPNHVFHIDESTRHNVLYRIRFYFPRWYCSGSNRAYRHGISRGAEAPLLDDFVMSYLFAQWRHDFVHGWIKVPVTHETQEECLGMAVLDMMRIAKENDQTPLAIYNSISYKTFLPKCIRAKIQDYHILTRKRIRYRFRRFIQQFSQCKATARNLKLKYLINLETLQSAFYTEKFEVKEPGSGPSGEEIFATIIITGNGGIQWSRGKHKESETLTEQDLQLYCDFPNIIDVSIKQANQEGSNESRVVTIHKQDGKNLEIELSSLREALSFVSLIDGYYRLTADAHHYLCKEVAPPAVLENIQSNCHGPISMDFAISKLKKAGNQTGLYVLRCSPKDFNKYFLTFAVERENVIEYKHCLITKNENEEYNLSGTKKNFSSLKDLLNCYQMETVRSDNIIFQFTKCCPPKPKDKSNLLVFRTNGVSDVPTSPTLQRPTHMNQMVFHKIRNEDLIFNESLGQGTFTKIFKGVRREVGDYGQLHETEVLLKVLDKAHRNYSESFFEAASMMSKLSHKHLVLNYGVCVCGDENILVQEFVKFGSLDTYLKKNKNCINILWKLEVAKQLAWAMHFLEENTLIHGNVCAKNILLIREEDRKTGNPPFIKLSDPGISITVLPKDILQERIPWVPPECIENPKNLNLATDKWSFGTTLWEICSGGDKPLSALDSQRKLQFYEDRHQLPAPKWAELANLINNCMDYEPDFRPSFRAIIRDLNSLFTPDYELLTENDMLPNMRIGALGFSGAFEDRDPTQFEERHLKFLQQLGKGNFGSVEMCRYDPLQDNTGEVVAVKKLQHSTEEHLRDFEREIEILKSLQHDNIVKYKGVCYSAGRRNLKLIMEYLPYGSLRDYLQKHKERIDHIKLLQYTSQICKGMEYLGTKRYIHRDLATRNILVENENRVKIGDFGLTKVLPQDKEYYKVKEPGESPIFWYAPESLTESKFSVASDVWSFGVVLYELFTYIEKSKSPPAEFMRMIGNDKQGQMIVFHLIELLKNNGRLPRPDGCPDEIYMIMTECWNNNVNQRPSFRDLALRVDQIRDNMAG

As usually defined, the Cmax is the maximum level reached in the sampled fluid or tissue. As a reminder, the Tmax is the time from dosing to the highest level. The t½ is the time in which the quantity being followed falls by half. With `CC(=O)O` [Acetate], in data set [1], the “AUC 0-inf” value came to 1200.1 ng·h/mL, the Cmax is 176.8 ng/mL, the F is reported as 24.7 % IV and the Tmax is on record as 0.5 h. Further, the t½ in data set [1] worked out at 5.8 h.
What is called IC50 is the concentration that inhibits the measured activity by half. Turning to `CN1CCN(c2ccc(Nc3ncc(Cl)c(Nc4cccc(CC#N)c4)n3)cc2F)CC1` [Compound 1, 2-(3-((5-chloro-2((3-fluoro-4-(4-methylpiperazin-1-yl)phenyl)amino)pyrimidin-4-yl)amino)phenyl)acetonitrile], the IC50 at ALK2 and against JAK2 kinase was more than 1000 nM throughout.
For `Cc1cnc(Nc2ccc(N3CCN(C)CC3)c(F)c2)nc1Nc1cccc(CC#N)c1` [Compound 2, 2-(3-((2-((3-fluoro-4-(4-methylpiperazin-1-yl)phenyl)amino)-5-methylpyrimidin-4-yl)amino)phenyl)acetonitrile], the IC50 on ALK2 and on JAK2 kinase was more than 1000 nM throughout.
With `CN1CCN(c2ccc(Nc3ncc(C#N)c(Nc4cccc(CC#N)c4)n3)cc2F)CC1` [Compound 3, 4-((3-(cyanomethyl)phenyl)amino)-2((3-fluoro-4-(4-methylpiperazin-1-yl)phenyl)amino)pyrimidine-5-carbonitrile], the IC50 on ALK2 and against JAK2 kinase was more than 1000 nM throughout.
With `COc1cc(Nc2nccc(Nc3cccc(C4(C#N)CC4)c3)n2)cc(OC)c1OC` [Compound 5, 1-(3-(2-(3,4,5-trimethoxyphenylamino)pyrimidin-4-ylamino)phenyl)cyclopropanecarbonitrile], the results for the IC50 at ALK2 and on JAK2 kinase were more than 1000 nM and less than 10 nM, respectively.
For the compound `CN1CCN(c2ccc(Nc3nccc(Nc4cccc(C5(C#N)CC5)c4)n3)cc2F)CC1` [Compound 8, 1-(3-((2-((3-fluoro-4-(4-methylpiperazin-1-yl)phenyl)amino)pyrimidin-4-yl)amino)phenyl)cyclopropanecarbonitrile], the IC50 is 10 to 1000 nM at ALK2 and less than 10 nM on JAK2 kinase.
For the compound `COc1cnc(Nc2ccc(N3CCN(CCO)CC3)c(Cl)c2)nc1Nc1cccc(C2(C#N)CC2)c1` [Compound 9, 1-(3-(2-(3-chloro-4-(4-(2-hydroxyethyl)piperazin-1-yl)phenylamino)-5-methoxypyrimidin-4-ylamino)phenyl)cyclopropanecarbonitrile], the IC50 on ALK2 is more than 1000 nM; against JAK2 kinase, 10 to 1000 nM.
Regarding `OCCN1CCN(c2ccc(Nc3nccc(Nc4cccnc4-c4ccccn4)n3)cc2Cl)CC1` [Compound 10, 2-(4-(4-(4-(2,2′-bipyridin-3-ylamino)pyrimidin-2-ylamino)-2-chlorophenyl)piperazin-1-yl)ethanol], the IC50 at ALK2 and against JAK2 kinase was 10 to 1000 nM each time.
For the compound `COc1cc(Nc2nccc(Nc3cccnc3-c3ccccn3)n2)ccc1N1CCN(C)CC1` [Compound 11, N^4-(2,2′-bipyridin-3-yl)-N^2-(3-methoxy-4-(4-methylpiperazin-1-yl)phenyl)pyrimidine-2,4-diamine], the results for the IC50 at ALK2 and at JAK2 kinase were less than 10 nM and more than 1000 nM, respectively.
As to `COc1cnc(Nc2ccc(N3CCN(CCO)CC3)c(Cl)c2)nc1Nc1cccnc1-c1ccccn1` [Compound 13, 2-(4-(4-(4-(2,2′-bipyridin-3-ylamino)-5-methoxypyrimidin-2-ylamino)-2-chlorophenyl)piperazin-1-yl)ethanol], the 50% inhibitory concentration (IC50) at ALK2 and on JAK2 kinase was more than 1000 nM each time.
As to `COc1cc(Nc2ncc(OC)c(Nc3cccnc3-c3ccccn3)n2)ccc1N1CCN(C)CC1` [Compound 14, N^4-([2,2′-bipyridin]-3-yl)-5-methoxy-N^2-(3-methoxy-4-(4-methylpiperazin-1-yl)phenyl)pyrimidine-2,4-diamine], the IC50 at ALK2 is more than 1000 nM; against JAK2 kinase, 10 to 1000 nM.
In the case of `Cc1ccc(Nc2ccnc(Nc3ccc(N4CCN(CCO)CC4)c(Cl)c3)n2)c(-c2ccccn2)n1` [Compound 15, 2-(4-(2-chloro-4-(4-(6-methyl-2,2′-bipyridin-3-ylamino)pyrimidin-2-ylamino)phenyl)piperazin-1-yl)ethanol], the IC50 on ALK2 is 10 to 1000 nM; on JAK2 kinase, more than 1000 nM.
As for `COc1cc(Nc2nccc(Nc3ccc(C)nc3-c3ccccn3)n2)ccc1N1CCN(C)CC1` [Compound 16, N^2-(3-methoxy-4-(4-methylpiperazin-1-yl)phenyl)-N^4-(6-methyl-2,2′-bipyridin-3-yl)pyrimidine-2,4-diamine], the IC50 at ALK2 is 10 to 1000 nM; against JAK2 kinase, more than 1000 nM.
Turning to `COc1cc(Nc2nccc(Nc3ccc(C)nc3-c3ccccn3)n2)cc(OC)c1OC` [Compound 17, N^4-(6-methyl-2,2′-bipyridin-3-yl)-N^2-(3,4,5-trimethoxyphenyl)pyrimidine-2,4-diamine], the IC50 at ALK2 is 10 to 1000 nM; on JAK2 kinase, more than 1000 nM.
Regarding `Cc1ccc(Nc2ccnc(Nc3ccc(N4CCN(CCO)CC4)c(Cl)c3)n2)c(CC#N)c1` [Compound 18, 2-(2-(2-(3-chloro-4-(4-(2-hydroxyethyl)piperazin-1-yl)phenylamino)pyrimidin-4-ylamino)-5-methylphenyl)acetonitrile], the IC50 on ALK2 and against JAK2 kinase was 10 to 1000 nM throughout.
Take `COc1cc(Nc2nccc(Nc3ccc(C)cc3CC#N)n2)ccc1N1CCN(C)CC1` [Compound 19, 2-(2-(2-(3-methoxy-4-(4-methylpiperazin-1-yl)phenylamino)pyrimidin-4-ylamino)-5-methylphenyl)acetonitrile]: the IC50 on ALK2 and at JAK2 kinase was 10 to 1000 nM each time.
With `COc1cc(Nc2nccc(Nc3ccc(C)c(CC#N)c3)n2)ccc1N1CCN(C)CC1` [Compound 21, 2-(5-(2-(3-methoxy-4-(4-methylpiperazin-1-yl)phenylamino)pyrimidin-4-ylamino)-2-methylphenyl)acetonitrile], the IC50 is 10 to 1000 nM on ALK2 and less than 10 nM at JAK2 kinase.
Take `N#CCc1cc(F)ccc1Nc1ccnc(Nc2ccc(N3CCN(CCO)CC3)c(Cl)c2)n1` [Compound 22, 2-(2-(2-(3-chloro-4-(4-(2-hydroxyethyl)piperazin-1-yl)phenylamino)pyrimidin-4-ylamino)-5-fluorophenyl) acetonitrile]: the IC50 at ALK2 and against JAK2 kinase was 10 to 1000 nM throughout.
Consider `O=C(O)C(O)C(O)C(=O)O` (centres unmarked) [Tartaric], for which, in data set [1], the “AUC 0-inf” value worked out at 370.9 ng·h/mL, the Cmax is 18.5 ng/mL and the Tmax is on record as 0.3 h.
On to Citrate, for which, in data set [1], the “AUC 0-inf” value is 801.5 ng·h/mL, the Cmax worked out at 93.4 ng/mL, the F stood at 22.4 % IV and the Tmax is reported as 0.5 h. For the same compound, in data set [1], the t½ came out at 6.8 h.
Regarding H2SO4 [Compound H2SO4], in data set [1], the “AUC 0-inf” value was determined as 538.3 ng·h/mL, the Cmax is recorded as 53.8 ng/mL, the F was 17.8 % IV and the Tmax was 1.0 h. Further, the t½ in data set [1] was determined as 9.2 h.
For Maleate, in that order: 484.8 ng·h/mL, 34.2 ng/mL, 12.1 % IV, 8.0 h and 8.5 h.
Oxalate: in data set [1], the “AUC 0-inf” value is 721.2 ng·h/mL, the Cmax was found to be 81.9 ng/mL, the F was found to be 17.3 % IV and the Tmax was determined as 0.5 h. Further, the t½ in data set [1] turned out to be 7.3 h.
